Source: ChEMBL document CHEMBL3751774, “Synthesis and anti-tubercular activity of conformationally-constrained and bisquinoline analogs of TMC207” (Medchemcomm, 2015)
≈ marks a conversion by molar mass, not a printed value.

Assays:
[1] = tested on: Mycobacterium tuberculosis; assay: Antitubercular activity against multi drug resistant Mycobacterium tuberculosis isolate 2 assessed as growth inhibition after 4 weeks; format: functional; settings: isolate 2, 672 h
[2] = tested on: Mycobacterium tuberculosis; assay: Antitubercular activity against multi drug resistant Mycobacterium tuberculosis isolate 1 assessed as growth inhibition after 4 weeks; format: functional; settings: isolate 1, 672 h

Row | Structure (SMILES) | MIC [1] [µM] | MIC [2] [µM]
1 | COc1nc2ccccc2cc1C(c1cc2ccccc2nc1OC)C(O)(CCN(C)C)c1cccc(Br)c1 (stereo not drawn) | 3.12 (≈ 1.83 µg/mL) | 3.12 (≈ 1.83 µg/mL)
2 | COc1nc2ccccc2cc1C(c1cc2ccccc2nc1OC)C(O)(CCN(C)C)c1ccc2ccccc2c1 (stereo not drawn) | 3.12 (≈ 1.74 µg/mL) | 3.12 (≈ 1.74 µg/mL)
3 | COc1nc2ccccc2cc1C(c1cc2ccccc2nc1OC)C(O)(CCN(C)C)c1ccccc1 (stereo not drawn) | 3.12 (≈ 1.58 µg/mL) | 3.12 (≈ 1.58 µg/mL)
4 | C=CCCOc1nc2ccccc2cc1C(c1cc2ccccc2nc1OCCC=C)C(O)(CCN(C)C)c1ccc(Br)cc1 (stereo not drawn) | 3.12 (≈ 2.08 µg/mL) | 3.12 (≈ 2.08 µg/mL)
